The record followed here is patent US10544167B2, “Compounds as stimuli-responsive probes, methods and applications thereof” (JAWAHARLAL NEHRU CENTRE FOR ADVANCED SCIENTIFIC RESEARCH, priority 2015, dated 2020).

The test system of data set [1] is H2O2 in HeLa cells. The experiment in a line: H2O2 detection after genotoxic stress (BrdU/doxorubicin) in HeLa cells, fluorescence plate reader. The class given is cell-based, Human. The settings on record: for fold increase in fluorescence compared to control cells: BrdU (100 μM), about 48 hours. The procedure: (§1) The cells are incubated with QCy-BA (5 μM) for 30 minutes in dark, washed with PBS and analysed to detect QCy-BA dye fluorescence using Infinite M1000 Pro, Tecan, Austria). Wavelengths used for excitation and emission for QCy-BA dye is 400 nm/650 nm. In all ROS measurement assays are done using plate reader and after fluorescence measurements, cells are washed, trypsinized and counted to estimate fluorescence per cell recordings.
To measure ROS generated concomitant to the dose of the DNA damage, HeLa cells are treated with increasing doses (0 to 200 μM) of 5-bromo-2′-deoxyuridine (BrdU). BrdU is a thymidine analog, which gets directly incorporated into DNA and triggers DNA damage response. From previous studies in the art it is known that 48 hours of treatment with BrdU (100 μM) or another DNA damaging agent, doxorubicin at a concentration of 0.1 μM can lead to the induction of cellular senescence.

A short description of data set [2]: Detection limit of H2O2 in presence of QCy-BA (concentration-dependent fluorescence, microplate reader). The conditions noted are these: QCy-BA 5 μM, PBS buffer, excitation 400 nm, 3σ/slope. The procedure: Concentration dependent studies are performed using microplate reader. In the well-plates, first QCy-BA (5 μM) in buffer solution is taken, then increasing concentration of H2O2 from 0 to 100 μM is added. Upon excitation at 400 nm, the emission at […] as function time after addition of H2O2 is collected. The fluorescence intensity at […] is plotted as a function of concentration of hydrogen peroxide and each experiment is done in triplicates.
Further, concentration-dependent fluorescence study on slicing of the phenyl boronic acid functionality of QCy-BA (5 μM) in response to sequential addition of H2O2 (5 to 100 μM) is performed. The fluorescence intensity of QCy-BA at 565 nm is decreased in response to added H2O2 in the concentration range of 5 to 50 μM and subsequently reached saturation at 100 μM. A linear relationship (R^2=0.9877) is observed with increasing concentration of H2O2 in the concentration range of 5-50 JAM. Based on 3a/slope the limit of detection (LOD) of H2O2, using the decrease in fluorescence of QCy-BA at 565 nm, is found to be 5.3 μM (FIG. 7). H2O2 is one of the many ROS present in the biological system and it is necessary to test the probe QCy-BA against all of them to assess the selectivity and specificity. […]

Data set [3] in a line: Fluorescence response of QCy-BA to various reactive oxygen species (selectivity). The conditions noted are these: QCy-BA 5 μM; superoxide, hydroxyl radical, tert-butoxy radical, hypochlorite, 100 μM each. The procedure:
Further, concentration-dependent fluorescence study on slicing of the phenyl boronic acid functionality of QCy-BA (5 μM) in response to sequential addition of H2O2 (5 to 100 μM) is performed. The fluorescence intensity of QCy-BA at 565 nm is decreased in response to added H2O2 in the concentration range of 5 to 50 μM and subsequently reached saturation at 100 μM. A linear relationship (R^2=0.9877) is observed with increasing concentration of H2O2 in the concentration range of 5-50 JAM. Based on 3a/slope the limit of detection (LOD) of H2O2, using the decrease in fluorescence of QCy-BA at 565 nm, is found to be 5.3 μM (FIG. 7). H2O2 is one of the many ROS present in the biological system and it is necessary to test the probe QCy-BA against all of them to assess the selectivity and specificity. Therefore, the response of QCy-BA towards H2O2 (100 μM) in the presence of other ROS (100 μM) is examined, including tertbutyl hydroperoxide (TBHP), superoxide (O2^−), hydroxyl radical (HO.), tert-butoxy radical (^tBuO.) and hypochlorite (OCl^−).

Data set [4] in a line: Time-dependent fluorescence study of release kinetics of QCy-BA to QCy-DT in response to H2O2 in presence of Drew-AT. The conditions noted are these: QCy-BA 2 μM, Drew-AT 2 μM. The procedure:
The time-dependent fluorescence study is carried out to evaluate the release kinetics of QCy-BA (2 μM) to QCy-DT in response to H2O2 (100 μM) stimulus, in presence of Drew-AT duplex. The change in fluorescence intensities at […] and 650 nm corresponding to emission maxima (Emax) of QCy-BA and QCy-DT in presence of Drew-AT is monitored.
The calculation of kinetics parameter using pseudo-first-order conditions for conversion of QCy-BA (2 μM) to QCy-DT in the presence of H2O2 (1 mM) and Drew-AT (2 μM) gave the rate constant of kobs=1.0×10^−3 s^−1 (FIG. 10).

Another data set has as its system HeLa cells. The experiment in a line: Cytotoxicity on HeLa cells (MTT assay). The data set is classed as cell-based, Human. The procedure: MTT [(3-(4,5-dimethylthiozol-2yl)-2,5-diphenyltetrazolium bromide] assay is carried out with probe QCy-BA on HeLa cells to determine the cytotoxicity effect. In a tissue cultured 96-well plate, 10,000 cells per well are plated and incubated for 24 h, for cells to attach. After completion of 24 h incubation, the attached and healthy cells are treated with various concentrations (25 μM, 12.5 μM, 6.25 μM, 3.125 μM and 0 μM) of probe QCy-BA and further incubated for 24 h. All the treatments are carried out in triplicates. The required concentrations of QCy-BA are made from stock solution in 0.2% DMEM. Stock solution of probe QCy-BA (1 mg/mL) is made in water. Four hours before stipulated time of experiment, MTT-solution (5 mg/mL of 20 μL) is added in each well and incubated to form formazan crystals. The culture medium is completely removed by 1 mL pipette and 200 μL of DMSO is added to dissolve formazan crystals. The purple colored formazan is estimated by determining absorbance at 590 nm with the help of spectrophotometer (Bio-RAD model 1680, Microplate reader). The results are shown in bar graphs (concentration of QCy-BA vs % cell viability).
In order to check the cytotoxicity of probe QCy-BA cell viability assay is performed in HeLa cells. Upon incubation with QCy-BA, more than 80% of the cells are viable even at 25 μM concentration after about 24 hours (FIG. 15).
For orientation: Tetrazolium assays rely on reduction of a dye to a coloured formazan, in cell work by metabolically active cells.

Data set [5] relates to H2O2 in HeLa cells. The experiment in a line: Confocal fluorescence imaging of HeLa cells treated with exogenous H2O2. The settings on record: QCy-BA 5 μM 30 minutes, then H2O2 100 μM about 15 minutes. The class given is cell-based, Human. The procedure:
An Immunofluorescence studies are carried out on HeLa cells to validate exogenous and endogenous detection of H2O2 by QCy-BA. The HeLa cells (10,000 cells) are grown on cover slips. These cells are treated with 5 μM concentration of QCy-BA for 30 minutes. The cells are washed with DPBS for several times to remove the excesses of QCy-BA. The cells are treated with H2O2 (100 μM) for 30 minutes. These samples are subjected to confocal microscopy for immunefluorescence images.
Remarkable selectivity of QCy-BA towards H2O2 and its detection through DNA-assisted switch-on NIR fluorescence led to evaluation of the uptake and application of the probe to detect H2O2 in cells. For this purpose, confocal fluorescence imaging of HeLa cells treated with H2O2 (exogenous) is carried out. First, the HeLa cells are incubated with QCy-BA (5 μM) for about 30 minutes and imaged under a confocal microscope. […] HeLa cells containing QCy-BA are then treated with H2O2 (100 μM) for about 15 minutes, after which the cells are again scanned under a confocal microscope.

The nature of data set [6]: Time-dependent NMR analysis of H2O2 triggered slicing of phenyl boronic acid of QCy-BA. The settings on record: QCy-BA 2 mM in D2O, H2O2 10 mM, 1H NMR. The procedure: In a preliminary study, time-dependent NMR spectroscopy analysis of QCy-BA is carried out in the presence of H2O2 to assess the stimuli-responsive slicing of phenyl boronic acid functionality (FIG. 1(a)).
The chemical shifts of O—CH2, aromatic region of QCy-BA and appearance of possible new peaks for p-quinonemethide (sliced byproduct corresponding to phenyl boronic acid functionality) upon sequential addition of H2O2 is monitored. […] The peaks at 5.20 ppm and aromatic region 6.5-7.0 ppm correspond to the newly-formed exocyclic C—Hb protons of p-quinone-methide and QCy-DT moieties, respectively. After about 2 hours, a single peak at 5.20 ppm and prominent new peaks at 6.5-7.0 ppm are observed, indicating the complete conversion of QCy-BA to QCy-DT and p-quinonemethide (FIG. 1(b)). This study confirmed the H2O2 stimulus-triggered slicing of phenyl boronic acid functionality of QCy-BA to release QCy-DT, a DNA minor groove binding probe. It is observed that the color of the solution changes from yellow to brown after the addition of H2O2 to QCy-BA, a naked eye detection of the formation of p-quinone-methide and QCy-DT (FIG. 1(c)).

Another data set relates to H2O2 in MRC5 cells. The experiment in a line: H2O2 detection after genotoxic stress (BrdU/doxorubicin) in primary MRC5 cells, fluorescence plate reader. The class given is cell-based, human. The settings on record: MRC5, various doses of BrdU and doxorubicin 0.1 μM, 72 h; probe 5 μM. The procedure: as §1
Further, similar experiments are performed in primary MRC5 cells, which are human lung primary fibroblasts. To induce DNA damage, MRC5 cells are similarly treated with various doses of BrdU and doxorubicin (0.1 μM) for 72 h. […] Therefore, above results reveal that QCy-BA is a versatile probe to monitor the elevated levels of H2O2 in both primary and cancer cells in senescence state.

The test system of data set [7] is H2O2 in HeLa cells. The experiment in a line: Exogenous and endogenous detection of H2O2 in HeLa cells by flow cytometry (FACS). The data set is classed as cell-based, Human. The settings on record: probe about 5 μM, about 30 minutes, absence of NAC. The procedure: In each well, […] cells are plated in 12-well tissue culture plates and incubated for 24 hours. These cells are serum deprived for 1 h. In addition, the serum deprived cells of 6-well are treated with N-acetyl-L-cysteine (NAC) (8 mM) solution and incubated for 1 hour and cells are treated with probe QCy-BA (5 μM) and incubated for 30 minutes. After 30 minutes incubation, the cells are washed with DPBS (Dulbecco's Phosphate buffer saline) to remove the excesses of QCy-BA. These cells are harvested after trypsinization. Exogenously, H2O2 (100 μM) is added to QCy-BA and NAC+QCy-BA treated cells and incubated for 15 min. These samples are subjected to FACS analysis.
NMR, photophysical study. […] Next. QCy-BA for probing cellular (physiologically generated) H2O2 levels in live cells is employed. HeLa cells are incubated with QCy-BA (about 5 μM) for about 30 minutes in the absence and presence of N-acetyl-L-cysteine (NAC), a well-known H2O2 scavenger. […] Thus, probe QCy-BA is also capable of detecting the cellular H2O2 levels in live cells.
(In general: Flow cytometry measures light scatter and fluorescence of single cells or particles in a stream.)

Data set [8] has as its system H2O2 produced by EGF/Nox pathway in HeLa cells. The experiment in a line: EGF produced H2O2 detection in HeLa cells by flow cytometry (FACS). The data set is classed as cell-based, Human. The settings on record: EGF 500 ng/mL about 40 minutes, QCy-BA 5 μM 30 minutes. The procedure: To determine the EGF produced ROS in cells by QCy-BA. In a 12-well plate, […] HeLa cells are plated in each well and incubated for 24 hour. These cells are serum deprived for 1 h. Cells are incubated with EGF (500 ng/mL) for 40 minutes and further treated with NAC (8 mM) for 1 hour. Then cells are treated with QCy-BA (5 μM) for 30 minutes. After 30 minutes incubation of cells with QCy-BA, cells are washed with DPBS (Dulbecco's Phosphate Buffer Saline) to remove the excesses of QCy-BA. These cells are harvested after trypsinization. The samples are subjected to FACS.
Further, the study is extended to visualize the in situ H2O2 generation by a known signaling pathway in live cells. Well-known epidermal growth factor (EGF) binding to epidermal growth factor receptor (EGFR) signaling pathway is selected, which stimulates the production of H2O2 in cells by activating the NOX/PI3K pathways. In this experiment, live HeLa cells are incubated with the epidermal growth factor (EGF) (500 ng/mL) for about 40 minutes under physiological conditions (37° C., pH=7.4).

Consider `CC(=O)Oc1cc2c(cc1Cl)C(c1ccccc1C(=O)O)c1cc(Cl)c(OC(C)=O)cc1O2` [DCFDA, 2′,7′-dichlorofluorescin diacetate], for which the “fold change of fluorescence (summary for DCFDA)” value in the data set with H2O2 in HeLa cells [1] (BrdU 100 μM and doxorubicin 0.1 μM, 48 h) was 3-4 fold. Further, in the data set on H2O2 in HeLa cells [1], the “fold increase in fluorescence compared to control cells” value is reported as 3 fold.
Take `C[n+]1c(/C=C/c2ccc(OCc3ccc(B(O)O)cc3)c(/C=C/c3sc4ccccc4[n+]3C)c2)sc2ccccc21.[I-].[I-]` [QCy-BA, 4-((N, N-dimethyl, 2,4-bis((E)-2-(benzo[d]thiazol-2-ylinium)vinyl)phenoxy)methyl)phenylboronic acid]: the “limit of detection (LOD) of H2O2, using the decrease in fluorescence of QCy-BA at 565 nm” value in [2] came out at 5.3 µM. Also, the “effect of other ROS on the probe response (fluorescence at 565 nm)” value in data set [3] was “very minimal or no effect”. The “time to saturation of emission intensity at 650 nm” value in [4] (H2O2 100 μM, excitation 564 nm) was no less than 4 h. In addition, in data set [4] (pseudo-first-order, H2O2 1 mM, emission 650 nm), the “rate constant kobs for conversion of QCy-BA to QCy-DT” value came out at 0.001 s⁻¹. For the same compound, the viable cells entry in the data set with HeLa cells (25 μM, about 24 hours) is reported as “more than 80%”. In addition, the “toxicity (in words)” value in the data set with HeLa cells (standard working concentration about 5 μM, 24 hours) is given as “non-toxicity”. Besides, the “fluorescence in HeLa cells after H2O2” value with H2O2 in HeLa cells [5] is reported as “strong fluorescence in the red channel with maximum localization in the cell nucleus”. Besides, in data set [6], the “time to complete conversion of QCy-BA to QCy-DT and p-quinonemethide” value is reported as “about 2 hours”. In the data set on H2O2 in HeLa cells [1], the “fold increase in fluorescence compared to control cells” value is given as roughly 10 fold. Also, the “fluorescence compared to control cells” value in the data set on H2O2 in MRC5 cells is “increase in fluorescence compared to control cells in a dose-dependent manner”. For the same compound, the “mean fluorescence intensity of PerCP compared to control cells” value in the data set on H2O2 in HeLa cells [7] is recorded as “increase in mean fluorescence intensity of PerCP”. In addition, in data set [8], the “fluorescence intensity in the PerCP region after EGF stimulation” value was “strong fluorescence intensity”.
